Measurements from patent publication US12358915B2, “METTL3 inhibitory compounds” (STORM THERAPEUTICS LTD., priority 2019, dated 2025).
Counter-ions that a name gives are not always drawn.

Molecular target: T1, METTL3/14 (Homo sapiens, UniProt Q86U44)
T1 construct: The enzyme used was full-length his-tagged METTL3; His; made in house
Assay: METTL3/14 methyltransferase assay (METTL3_14 RFMS, RapidFire mass spectrometry);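 further: recombinant His-tagged METTL3 with FLAG-tagged METTL14 from baculovirus, SAH product quantified by mass spectrometry against isotope-labelled internal standards, 60 min at room temperature, scaled between no-RNA and DMSO-only wells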
Format: biochemical
Conditions: 5 nM METTL3/14, 0.2 μM RNA substrate, 0.5 μM SAM; lower limit of the assay IC50=5 nM; Compounds 1-62; read-out: METTL3_14 RFMS IC50
Description: The enzyme used was full-length his-tagged METTL3 co-expressed with full length FLAG-tagged METTL14 in a baculovirus expression system. […] After termination, plates were sealed, centrifuged and stored at 4° C. until analysis. […] Mass Spectrometry Analysis RNA methyltransferase activity was measured label free using the RapidFireTM mass spectrometry (RF/MS) platform. Stopped and stable assay plates were analyzed on the Agilent RF300 integrated autosampler/solid-phase extraction (SPE) system coupled to an ABSciex 4000 mass spectrometer for the generation of the product S-adenosyl homocysteine (SAH) and normalized to the ratio of signal of the two internal product standards, respectively. Solvent A was water containing 0.1% (v/v) TCA. Solvent B was acetonitrile/0.1% ammonium acetate (8:2, v/v). More specifically, plates were centrifuged at 4350 rpm for 10 min, samples were aspirated under vacuum for 600 ms, then loaded onto a C18 solid-phase extraction cartridge and washed for 3 s with solvent A at a flow rate of 1.5 mL/min. Retained product and internal standards were eluted with solvent B at a flow rate of 1 mL/min for 3 s and finally the cartridge was reequilibrated with solvent A for 500 ms.

T1 sequence (Q86U44 whole entry): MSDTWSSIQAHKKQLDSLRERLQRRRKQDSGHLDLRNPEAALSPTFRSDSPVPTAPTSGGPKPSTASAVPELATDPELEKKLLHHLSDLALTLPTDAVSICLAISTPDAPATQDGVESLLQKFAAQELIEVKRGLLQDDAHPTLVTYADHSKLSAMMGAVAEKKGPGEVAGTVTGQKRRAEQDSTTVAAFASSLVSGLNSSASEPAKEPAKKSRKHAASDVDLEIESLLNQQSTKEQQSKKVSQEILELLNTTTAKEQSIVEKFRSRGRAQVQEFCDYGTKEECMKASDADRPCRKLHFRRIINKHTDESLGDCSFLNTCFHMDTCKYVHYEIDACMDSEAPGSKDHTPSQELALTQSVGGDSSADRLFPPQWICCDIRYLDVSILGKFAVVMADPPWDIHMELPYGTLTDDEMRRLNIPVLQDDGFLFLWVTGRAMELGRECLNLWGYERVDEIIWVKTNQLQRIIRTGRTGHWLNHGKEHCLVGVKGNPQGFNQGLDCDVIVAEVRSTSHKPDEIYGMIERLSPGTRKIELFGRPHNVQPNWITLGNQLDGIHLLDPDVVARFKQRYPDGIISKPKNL
T1 sequence (Q9HCE5 whole entry partner): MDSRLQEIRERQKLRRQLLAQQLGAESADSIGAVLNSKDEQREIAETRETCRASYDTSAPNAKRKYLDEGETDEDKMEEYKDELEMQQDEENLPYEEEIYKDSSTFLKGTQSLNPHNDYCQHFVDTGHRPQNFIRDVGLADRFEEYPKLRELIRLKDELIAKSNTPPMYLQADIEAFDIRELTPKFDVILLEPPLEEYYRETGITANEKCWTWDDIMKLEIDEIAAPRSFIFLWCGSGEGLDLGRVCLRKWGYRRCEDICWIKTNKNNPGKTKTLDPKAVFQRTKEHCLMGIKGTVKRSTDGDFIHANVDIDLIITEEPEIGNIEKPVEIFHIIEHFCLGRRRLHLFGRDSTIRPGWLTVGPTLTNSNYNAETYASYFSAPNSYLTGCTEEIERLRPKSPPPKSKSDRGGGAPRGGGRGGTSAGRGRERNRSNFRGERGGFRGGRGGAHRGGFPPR

Row | SMILES | IC50 [nM]
1 | Cc1ccc2nc(C(CO)NC(=O)c3cccc4[nH]ncc34)cn2c1 (stereo not shown) [Compound 30, N-(2-hydroxy-1-{6-methylimidazo[1,2-a]pyridin-2-yl}ethyl)-1H-indazole-4-carboxamide] | 8520
2 | Cc1ccc2nc(CNC(=O)c3cc(=O)c4ccccc4o3)cn2c1 [Compound 12, N-({6-methylimidazo[1,2-a]pyridin-2-yl}methyl)-4-oxo-4H-chromene-2-carboxamide] | 1410
3 | Cc1cccn2cc(CNC(=O)c3cc(=O)n4ccccc4n3)nc12 [Compound 27, N-({8-methylimidazo[1,2-a]pyridin-2-yl}methyl)-4-oxo-4H-pyrido[1,2-a]pyrimidine-2-carboxamide] | 6610
4 | O=C(NCc1cn2cc(-c3cccc(Cl)c3)ccc2n1)c1cccc2[nH]ncc12 [Compound 36] | 3910
5 | Cc1ccn2cc(CNC(=O)c3cc(=O)n4ccccc4n3)nc2c1 [Compound 17, N-({7-methylimidazo[1,2-a]pyridin-2-yl}methyl)-4-oxo-4H-pyrido[1,2-a]pyrimidine-2-carboxamide] | 2240
6 | CNCc1ccc2nc(CNC(=O)c3cccc4[nH]ncc34)cn2c1 [Compound 44, N-({6-[(methylamino)methyl]imidazo[1,2-a]pyridin-2-yl}methyl)-1H-indazole-4-carboxamide dihydrochloride] | 5050

Same assay, conditions: 5 nM METTL3/14, 0.2 μM RNA substrate, 0.5 μM SAM; lower limit of the assay IC50=5 nM; Compounds 63-265; read-out: METTL3_14 RFMS IC50

Row | SMILES | IC50 [nM]
7 | O=C(NCc1cn2cc(CNC3CCOC3)ccc2n1)c1cc(=O)n2ccccc2n1 (stereo not shown) [Compound 122, 4-oxo-N-[(6-{[(oxolan-3-yl)amino]methyl}imidazo[1,2-a]pyridin-2-yl)methyl]-4H-pyrido[1,2-a] pyrimidine-2-carboxamide] | 110
8 | O=C(NCc1cn2cc(CN3CCCC3)ccc2n1)c1cc(=O)n2ccccc2n1 [Compound 133, 4-oxo-N-({6-[(pyrrolidin-1-yl)methyl]imidazo[1,2-a]pyridin-2-yl}methyl)-4H-pyrido[1,2-a] pyrimidine-2-carboxamide] | 480
9 | O=C(NCc1cn2cc(CNCC3CC3)ccc2n1)c1cc(=O)n2ccccc2n1 [Compound 84, N-[(6-{[(cyclopropyl-methyl)amino]methyl}imidazo [1,2-a]pyridin-2-yl)methyl]-4-oxo-4H-pyrido [1,2-a]pyrimidine-2-carboxamide] | 36.5
10 | O=C(NCc1cn2cc(CNC[C@H](O)C(F)(F)F)ccc2n1)c1cc(=O)n2ccccc2n1 [Compound 125, 4-oxo-N-{[6-({[(2S)-3,3,3-trifluoro-2-hydroxypropyl]amino}methyl)imidazo[1,2-a]pyridin-2-yl]methyl}-4H-pyrido[1,2-a] pyrimidine-2-carboxamide] | 221
11 | CC(C)(C)CCNCc1ccc2nc(CNC(=O)c3cc(=O)n4ccccc4n3)cn2c1 [Compound 93, N-[(6-{[(3,3-dimethylbutyl)amino]methyl}imidazo[1,2-a]pyridin-2-yl)methyl]-4-oxo-4H-pyrido[1,2-a] pyrimidine-2-carboxamide] | 13
12 | O=C(NCc1cn2cc(CNC3CNC3)ccc2n1)c1cc(=O)n2ccccc2n1 [Compound 241, N-[(6-{[(azetidin-3-yl)amino]methyl}imidazo[1,2-a]pyridin-2-yl)methyl]-4-oxo-4H-pyrido[1,2-a]pyrimidine-2-carboxamide] | 2110
13 | CS(=O)(=O)CCNCc1ccc2nc(CNC(=O)c3cc(=O)n4ccccc4n3)cn2c1 [Compound 96, N-[(6-{[(2-methane-sulfonylethyl)amino]methyl}imidazo[1,2-a]pyridin-2-yl)methyl]-4-oxo-4H-pyrido [1,2-a]pyrimidine-2-carboxamide] | 947
14 | NCCc1ccc2nc(CNC(=O)c3cc(=O)n4ccccc4n3)cn2c1 [Compound 63, N-{[6-(2-aminoethyl)imidazo[1,2-a]pyridin-2-yl]methyl}-4-oxo-4H-pyrido[1,2-a]pyrimidine-2-carboxamide] | 299
15 | O=C(NCc1cn2cc(CN3C4CCC3CC4)ccc2n1)c1cc(=O)n2ccccc2n1 [Compound 169, N-{[6-({7-azabicyclo [2.2.1]heptan-7-yl}methyl)imidazo[1,2-a]pyridin-2-yl]methyl}-4-oxo-4H-pyrido[1,2-a]pyrimidine-2-carboxamide] | 391
16 | NC(Cc1ccccc1)Cc1ccc2nc(CNC(=O)c3cc(=O)n4ccccc4n3)cn2c1 (stereo not shown) [Compound 247, N-{[6-(2-amino-3-phenylpropyl)imidazo[1,2-a]pyridin-2-yl]methyl}-4-oxo-4H-pyrido[1,2-a]pyrimidine-2-carboxamide] | 1080
17 | O=C(NCc1cn2cc(CNCC3CC34CC4)ccc2n1)c1cc(=O)n2ccccc2n1 (stereo not shown) [Compound 140] | 18.7
18 | CC(C)(C)OCCNCc1ccc2nc(CNC(=O)c3cc(=O)n4ccccc4n3)cn2c1 [Compound 152, N-{[6-({[2-(tert-butoxy)ethyl]amino}methyl)imidazo[1,2-a]pyridin-2-yl]methyl}-4-oxo-4H-pyrido[1,2-a] pyrimidine-2-carboxamide] | 104
19 | O=C(NCc1cn2cc(CNCCC3CCCC3)ccc2n1)c1cc(=O)n2ccccc2n1 [Compound 163, N-[(6-{[(2-cyclopentylethyl)amino]methyl}imidazo[1,2-a]pyridin-2-yl)methyl]-4-oxo-4H-pyrido[1,2-a]pyrimidine-2-carboxamide] | 80.1
20 | C[C@H](NCc1ccc2nc(CNC(=O)c3cc(=O)n4ccccc4n3)cn2c1)C(C)(C)C [Compound 215, N-{[6-({[(2S)-3,3-dimethylbutan-2-yl]amino}methyl)imidazo[1,2-a]pyridin-2-yl]methyl}-4-oxo-4H-pyrido [1,2-a]pyrimidine-2-carboxamide] | 54.3
21 | CC1CN(Cc2ccc3nc(CNC(=O)c4cc(=O)n5ccccc5n4)cn3c2)CC(C)O1 (stereo not shown) [Compound 199, N-({6-[(2,6-dimethylmorpholin-4-yl)methyl]imidazo[1,2-a]pyridin-2-yl}methyl)-4-oxo-4H-pyrido[1,2-a]pyrimidine-2-carboxamide] | 1860
22 | O=C(NCc1cn2cc(CNCc3ccc(Cl)cc3)ccc2n1)c1cc(=O)c2ccccc2o1 [Compound 220, N-{[6-({[(4-chlorophenyl)methyl]amino}methyl)imidazo[1,2-a]pyridin-2-yl]methyl}-4-oxo-4H-chromene-2-carboxamide] | 168
23 | O=C(NCc1cn2cc(CN3CCCC(C(F)(F)F)C3)ccc2n1)c1cc(=O)n2ccccc2n1 (stereo not shown) [Compound 142, 4-oxo-N-[(6-{[3-(trifluoromethyl)piperidin-1-yl]methyl}imidazo [1,2-a]pyridin-2-yl)methyl]-4H-pyrido[1,2-a] pyrimidine-2-carboxamide] | 48.8
24 | O=C(NCc1cn2cc(CNC3CC3)ccc2n1)c1cc(=O)n2ccccc2n1 [Compound 109, N-({6-[(cyclopropyl-amino)methyl]imidazo[1,2-a]pyridin-2-yl}methyl)-4-oxo-4H-pyrido[1,2-a] pyrimidine-2-carboxamide] | 350
25 | O=C(NCc1cn2cc(CNCC3CCCCO3)ccc2n1)c1cc(=O)n2ccccc2n1 (stereo not shown) [Compound 88, N-{[6-({[(oxan-2-yl)methyl]amino}methyl)imidazo[1,2-a]pyridin-2-yl]methyl}-4-oxo-4H-pyrido[1,2-a] pyrimidine-2-carboxamide] | 114
26 | O=C(NCc1cn2cc(CNCC3COC3)ccc2n1)c1cc(=O)n2ccccc2n1 [Compound 111, N-{[6-({[(oxetan-3-yl)methyl]amino}methyl)imidazo[1,2-a]pyridin-2-yl]methyl}-4-oxo-4H-pyrido[1,2-a] pyrimidine-2-carboxamide] | 109
27 | O=C(NCc1cn2cc(CN3CCC(c4ccccc4)C3)ccc2n1)c1cc(=O)n2ccccc2n1 (stereo not shown) [Compound 97, 4-oxo-N-({6-[(3-phenylpyrrolidin-1-yl)methyl]imidazo [1,2-a]pyridin-2-yl}methyl)-4H-pyrido[1,2-a] pyrimidine-2-carboxamide] | 1020
28 | O=C(NCc1cn2cc(CNCC3CC3(F)F)ccc2n1)c1cc(=O)n2ccccc2n1 (stereo not shown) [Compound 157, N-{[6-({[(2,2-difluoro-cyclopropyl)methyl]amino}methyl)imidazo [1,2-a]pyridin-2-yl]methyl}-4-oxo-4H-pyrido [1,2-a]pyrimidine-2-carboxamide] | 42.9

Same assay, conditions: 5 nM METTL3/14, 0.2 μM RNA substrate, 0.5 μM SAM; lower limit of the assay IC50=5 nM; Compounds 266-351; read-out: METTL3_14 RFMS IC50

Row | SMILES | IC50 [nM]
29 | COc1cc(Br)cc2c1OCC(c1ccc3nc(CNC(=O)c4cc(=O)n5ccccc5n4)cn3c1)NC2 (stereo not shown) [Example 332] | 1700
30 | O=C(NCc1cn2cc(CNCC3CC4(CCC4)C3)ccc2n1)c1cc(=O)n2ccccc2n1 [Compound 277, 4-oxo-N-[[6-[(spiro[3.3]heptan-2-ylmethylamino)methyl]imidazo[1,2-a]pyridin-2-yl]methyl]pyrido[1,2-a]pyrimidine-2-carboxamide] | 76.3
31 | c1cc(-c2ncn(Cc3cn4cc(CNCC5CCC5)ccc4n3)n2)c2cn[nH]c2c1 [Example 341, N-(cyclobutylmethyl)-1-[2-[[3-(1H-indazol-4-yl)-1,2,4-triazol-1-yl]methyl]imidazo[1,2-a]pyridin-6-yl]methanamine] | 64.4
32 | CC(C)(C)CNCc1ccc2nc(Cn3cc(-c4cc(C5CC5)cc5[nH]ncc45)nn3)cn2c1 [Example 321, N-[[2-[[4-(6-cyclopropyl-1H-indazol-4-yl)triazol-1-yl]methyl]imidazo[1,2-a]pyridin-6-yl]methyl]-2,2-dimethyl-propan-1-amine] | 13.2
33 | CCC(O)CNCc1ccc2nc(CNC(=O)c3cc(=O)n4ccccc4n3)cn2c1 (stereo not shown) [Compound 289, N-[[6-[(2-hydroxputylamino)methyl]imidazo[1,2-a]pyridin-2-yl]methyl]-4-oxo-pyrido[1,2-a]pyrimidine-2-carboxamide] | 103

Same assay, conditions: read-out: METTL3_14 RFMS IC50

Row | SMILES | IC50 [nM]
34 | C#Cc1cc(C(=O)NCc2cn3cc(C)ccc3n2)c2cn[nH]c2c1 [Compound 14, 6-ethynyl-N-({6-methylimidazo[1,2-a]pyridin-2-yl}methyl)-1H-indazole-4-carboxamide] | 5900
